Assay results from patent publication US6350729B1, “Inhibition of nitric oxide-mediated hypotension and septic shock with iron-containing hemoprotein” (Board of Regents, The University of Texas System, priority 1992, dated 2002).
Like-named read-outs stand apart in the source and are kept apart here.

Tests used:
[1] = test system: endotoxin-induced hypotension; test: Endotoxin-induced hypotension in anesthetized dog, mean arterial blood pressure; format: in vivo
Method: Experiments were carried out on conditioned mongrel dogs weighing 23-28 kg. Animal care was in accordance with the recommendations of the American Association for Accreditation of Laboratory Animal Care and met all standards prescribed by the Guide for the Care and Use of Laboratory Animals (Committee on Care and Use of Laboratory Animals (1978) Guide for the Care and Use of Laboratory Animals (Natl. Inst. Health, Bethesda, Md.) DHEW Publ. No. (NIH) 78-83.
The dog was fasted overnight before the day of the experiment and was anesthetized with pentobarbital (25 mg/kg, i.v.), orotracheally intubated and ventilated with a Harvard pump at a nominal rate of 12 breaths per minute and a tidal volume of 15 ml/kg. The dog was instrumented with a cordis for the introduction of a Swan-ganz catheter for measurement of central venous and pulmonary arterial pressures as well as an arterial line for continuous blood pressure monitoring via a computer driven analog to digital processor.
After the blood pressure and heart rate was stabilized, endotoxin was administered to the dog as a bolus injection (50 μg/kg, i.v. in 10 ml DPBS. After the onset of hypotension, a rapid infusion of 50 ml hemoglobin (5.0 g commercially available bovine hemoglobin/100 ml) over 20 seconds was administered by a central venous catheter. Cardiovascular changes were monitored for an additional 12 hrs. after hemoglobin administration.
A tracing depicting endotoxin-induced hypotension, its inhibition by hemoglobin, and subsequent administration of bovine serum albumin (5 grams) is shown in FIG. 1. Mean arterial blood pressure declined from 160 mm Hg to 70 mm Hg two hours after endotoxin administration. The hemoglobin (HgB) was subsequently administered as an intravenous bolus. […] This effect lasted approximately 45 minutes before the blood pressure decline resumed. […] On repetition of this experiment, substantially the same results were obtained.

rabbit aortic rings = settings: cited from earlier work
blood pressure [2] = settings: guinea pigs; cited from earlier work
blood pressure [3] = settings: rabbits; cited from earlier work
[4] = Kinetic 96-well microplate assay, capture of NO by Fe2+-myoglobin; format: biochemical; settings: 5 μM Mb, endothelial cell cytosol, 500 μM L-arginine, 500 μM NADPH, 80 mM TRIS pH 7.6, 25° C.
Method: Nitric oxide formation by endothelial cell cytosol was measured by a novel kinetic 96-well microplate assay. The assay is based on the capture of NO by Fe^2+-myoglobin (Mb) which is subsequently oxidized to Fe^3+-myoglobin. The process of heme oxidation was continuously measured in a kinetic microplate reader (Molecular Devices, Menlo Park Calif.) as the rate of change in OD405-OD650. Data points were collected from all 96 wells every 16 sec. for 30 minutes at 25° C. with shaking prior to each OD measurement. The slope of the best fit regression line (OD/min) was used to calculate the rate of NO-synthesis. OD/min measurements were converted to pmoles NO/min by dividing by the increase in OD405-OD650 measured upon complete oxidation of 1 pmole of reduced Mb with a 10-fold molar excess of potassium ferricyanide. Under the conditions employed, the efficiency of NO capture by Mb approached 100%; neither doubling nor halving the concentration of Mb influenced the Mb oxidation rate. All samples contained 5-30 μl of endothelial cell cytosol (1-6 mg protein/ml) and final concentrations of 5 μM Mb, 500 μM L-arginine, 500 μM NADPH and 80 Mm TRIS, pH 7.6.
Fe^2+-Myoglobin Preparation: 2 mM myoglobin (from horse skeletal muscle, Sigma) was reduced with a sodium dithionite and immediately applied to a Sephadex G-25 column, followed by elution with 50 Mm TRIS buffer, Ph 7.6. […]

## hemoglobin: commercially available bovine hemoglobin, 5.0 g/100 ml, iron hemoprotein given intravenously
[1]; FIG. 1 legend
  endotoxin-induced mean arterial decline (FIG. 1): interrupted
[1]; endotoxin 50 μg/kg i.v., 50 ml of 5.0 g/100 ml bovine hemoglobin over 20 seconds
  duration of effect before the blood pressure decline resumed: approximately 45 minutes
[1]; endotoxin 50 μg/kg i.v., intravenous bolus after mean arterial pressure fell from 160 to 70 mm Hg at two hours
  blood pressure drop: abrogated
[1]; endotoxin 50 μg/kg i.v., intravenous bolus after onset of hypotension
  hypotension: partially reversed
Rabbit aortic rings; 1 μM
  endothelium-dependent relaxation induced by acetylcholine or by A23187: reduced
Rabbit aortic rings; 10 μM
  endothelium-dependent relaxation induced by acetylcholine or by A23187: abolished

## CNC(=N)NCCC[C@H](N)C(=O)O [N^G-methyl-L-arginine]
Blood pressure [2]
  effect on blood pressure: increase blood pressure
Blood pressure [3]
  effect on blood pressure: increase blood pressure

## bovine serum albumin: bovine serum albumin (5 grams) given as protein comparison after hemoglobin [reference compound]
[1]; endotoxin-induced hypotension, 5 grams given after the hemoglobin effect ended
  subsequent blood pressure decline: only slightly influenced

B1: Mb: myoglobin from horse skeletal muscle, Sigma, reduced to Fe2+ form (protein, UniProt P68082 2-154, looked up)
Myoglobin: GLSDGEWQQVLNVWGKVEADIAGHGQEVLIRLFTGHPETLEKFDKFKHLKTEAEMKASEDLKKHGTVVLTALGGILKKKGHHEAELKPLAQSHATKHKIPIKYLEFISDAIIHVLHSKHPGDFGADAQGAMTKALELFRNDIAAKYKELGFQG
[4]
  efficiency of NO capture: ~100%
